{"source": "ChEMBL document CHEMBL3044839", "about": "“Bisdesmosidic saponins from Securidaca longepedunculata roots: evaluation of deterrency and toxicity to Coleopteran storage pests” (2009)", "key": {"Callosobruchus maculatus [1]": {"system": "Callosobruchus maculatus", "assay": "Insecticidal activity against Callosobruchus maculatus in compound pretreated stored cowpea commodities assessed as decrease in number of adults emerging in F1 generation at 2.5 mg", "assay_type": "functional, organism-based"}, "Callosobruchus maculatus [2]": {"system": "Callosobruchus maculatus", "assay": "Insecticidal activity against adult Callosobruchus maculatus in compound pretreated stored cowpea commodities assessed as decrease in number of oviposted eggs on the surface of seeds at 2.5 mg by choice bioassay", "assay_type": "functional, organism-based"}, "Callosobruchus maculatus [3]": {"system": "Callosobruchus maculatus", "assay": "Insecticidal activity against Callosobruchus maculatus in compound pretreated stored cowpea commodities assessed as decrease in egg hatching on the surface of seeds at 2.5 mg", "assay_type": "functional, organism-based"}, "Sitophilus zeamais [4]": {"system": "Sitophilus zeamais", "assay": "Insecticidal activity against adult Sitophilus zeamais in compound pretreated stored maize commodities assessed as decrease in number of damaged seeds at 2.5 mg measured after 2 weeks (reference value: >95%)", "assay_type": "functional", "set-up": "scale not given: the % may be the effect or the level left"}, "Sitophilus zeamais [5]": {"system": "Sitophilus zeamais", "assay": "Insecticidal activity against adult Sitophilus zeamais in compound pretreated stored maize commodities assessed as mortality at 2.5 mg measured after 2 weeks", "assay_type": "functional, organism-based"}}, "note": "Activity calls are given as the source filed them. The calls are words filed in the database; no cut-off is given here."}
{"smiles": "COc1ccc(C=CC(=O)O[C@@H]2[C@H](O)[C@@H](O[C@@H]3O[C@@H](C)[C@H](O[C@@H]4OC[C@@H](O)[C@H](O[C@@H]5OC[C@H](O)[C@H](O)[C@H]5O)[C@H]4O)[C@@H](O[C@@H]4OC[C@](O)(CO)[C@H]4O)[C@H]3O)[C@H](OC(=O)[C@]34CCC(C)(C)C[C@H]3C3=CC[C@@H]5[C@@]6(C)C[C@H](O)[C@H](O[C@@H]7O[C@H](CO)[C@@H](O)[C@H](O)[C@H]7O)[C@@](C)(C(=O)O)[C@@H]6CC[C@@]5(C)[C@]3(C)CC4)O[C@@H]2C)cc1", "values": [{"measurement": "Activity", "setting": "Callosobruchus maculatus [1]", "result": "Active"}, {"measurement": "Activity", "setting": "Callosobruchus maculatus [2]", "result": "Active"}, {"measurement": "Activity", "setting": "Callosobruchus maculatus [3]", "result": "Active"}, {"measurement": "Activity", "setting": "Sitophilus zeamais [4]", "result": "<35", "unit": "%"}, {"measurement": "mortality", "setting": "Sitophilus zeamais [5]", "result": "Active"}]}
